Measured values taken from patent publication US12667581B2, “Therapeutics for treatment of COVID-19 symptoms” (The Texas A&M University System, priority 2020, dated 2026).

What was measured:
Type in all cases: in vivo, C57BL/6 mice
[1] = tested on: Mouse Model of CALD (ORN06 oropharyngeal aspiration); test: Total cells in BALF, ORN06 mouse model of CALD; conditions: i.p. at 24 and 48 hours after ORN06 insult (DANA 10 mg/kg, AMPCA 0.1 mg/kg); BALF at day 3; FIG. 1
[2] = tested on: Mouse Model of CALD (ORN06 oropharyngeal aspiration); test: BALF cell types by Wright-Giemsa staining, ORN06 mouse model of CALD; conditions: for ORN06-induced increase in the number of monocyte/macrophages in the BALF / counts of specific cell types in the BALF, treated groups versus Control group: i.p. at 24 and 48 hours after ORN06 (DANA 10 mg/kg, AMPCA 0.1 mg/kg); for ORN06-induced increase in the number of monocyte/macrophages in the BALF: day 3, FIG. 2A; for counts of specific cell types in the BALF, treated groups versus Control group: day 3, FIG. 2A-C
Procedure: (§1) To determine if DANA or AMPCA affect CALD symptoms in mice, 5 week old 20 g male and female C57BL/6 mice (#000664; Jackson Laboratories, Bar Harbor, ME) were given an oropharyngeal aspiration of 1 mg/kg (20 μg/mouse) ORN06/LyoVec (LyoVec protects the ssRNA from degradation and facilitates cellular uptake) (InvivoGen, San Diego, CA) in 50 μl phosphate-buffered saline (PBS) to induce symptoms of pulmonary inflammation, or an oropharyngeal aspiration of an equal volume of PBS as a control, following Current protocols in mouse biology 2, 167-175 (2012). At 24 and 48 hours after ORN06 insult, some of ORN06-treated mice were given intraperitoneal injections of 100 μl PBS, or 10 mg/kg of DANA (N-Acetyl-2,3-dehydro-2-deoxyneuraminic acid; #252926-10MG, EMD, Millipore, Burlington, MA) or 0.1 mg/kg of 2-piperidinecarboxylic acid, 4-amino-1-methyl (AMPCA, #A00285-13785-026, Sundia, Shanghai, China) in 100 μl PBS. The DANA was dissolved in water to 2.5 mg/ml, and then diluted in PBS The AMPCA was dissolved directly in PBS. At day 3, mice were euthanized by CO2 inhalation, and BALF was obtained as previously described in Current protocols in mouse biology 2, 167-175 (2012); Proceedings of the National Academy of Sciences of the United States of America 112, 8385-8390 (2015); Public Library of Science ONE 9, e93730 (2014); and Nature Scientific Reports 8; 7 (1):15069 (2017). The experiment was performed in accordance with the recommendations in the Guide for the Care and use of Laboratory Animals of the National Institutes of Health. The Texas A&M University Animal Use and Care Committee approved the protocol.
Total cells in the BALF were then quantified. The BALF cells were processed to prepare cell spots as described previously in Public Library of Science ONE 9, e93730 (2014), Nature Scientific Reports 8; 7 (1):15069 (2017); American Journal of Physiology Lung Cellular and Molecular Physiology, 1; 318 (1):L165-L179 (2020). After air drying for 48 hours at room temperature, some of the prepared BALF cell spots were fixed and treated with Wright-Giemsa stain (#08711, Polysciences, Inc., Warrington, PA) following the manufacturer's instructions. One hundred and fifty cells per mouse were examined and quantified for cell type following the manufacturer's instructions. Imaging of BALF cell spots stained with Wright-Giemsa stain was done with a Nikon Eclipse Ti2 microscope.

[3] = tested on: Mouse Model of CALD (ORN06 oropharyngeal aspiration); test: BALF cell types by immunochemistry on cell spots, ORN06 mouse model of CALD; conditions: i.p. at 24 and 48 hours after ORN06 (DANA 10 mg/kg, AMPCA 0.1 mg/kg), day 3, FIG. 3
Procedure: as §1
Immunochemistry on BALF cell spots and counts of cells was performed as described previously in Public Library of Science ONE 9, e93730 (2014); Proceedings of the National Academy of Sciences of the United States of America 112, 8385-8390 (2015); Nature Scientific Reports 8; 7 (1):15069 (2017); American Journal of Physiology Lung Cellular and Molecular Physiology, 1; 318 (1)1,165-L179 (2020) using anti-CD3 (100202, clone 17A2, BioLegend, San Diego, CA) to detect T-cells, anti-CD11b (101202, clone M1/70, BioLegend) to detect blood and inflammatory macrophages, anti-CD11c (M100-3, clone 223H7, MBL International, Woburn, MA) to detect alveolar macrophages and dendritic cells, anti-CD45 (103102, clone 30-F11, BioLegend) for total leukocytes, anti-Ly6G (127602, clone 1A8, BioLegend) to detect neutrophils, with isotype-matched irrelevant rat antibodies diluted to 5 μg/ml in PBS containing 2% (w:v) bovine serum albumin (PBS-BSA) (VWR, Radnor, PA). Cells were then incubated in coplin jars containing PBS, with 6 changes of buffer over 30 minutes. […] Using a 40× objective, at least 100 cells from each stained BALF spot were examined and the percent positive cells was recorded.

[4] = tested on: Mouse Model of CALD (ORN06 oropharyngeal aspiration); test: Clot-like aggregates in BALF cell spots, ORN06 mouse model of CALD; conditions: male mice; irregularly shaped 2-10 μm object staining dark blue with Wright-Giemsa; i.p. at 24 and 48 hours after ORN06 (DANA 10 mg/kg, AMPCA 0.1 mg/kg); day 3; FIG. 4
[5] = tested on: Mouse Model of CALD (ORN06 oropharyngeal aspiration); test: Alveolar wall thickness in H&E-stained lung cryosections, ORN06 mouse model of CALD; conditions: i.p. at 24 and 48 hours after ORN06 (DANA 10 mg/kg, AMPCA 0.1 mg/kg), day 3, FIGS. 5 and 6
Procedure: (§2) To determine if DANA or AMPCA affect CALD symptoms in mice, 5 week old 20 g male and female C57BL/6 mice (#000664; Jackson Laboratories, Bar Harbor, ME) were given an oropharyngeal aspiration of 1 mg/kg (20 μg/mouse) ORN06/LyoVec (LyoVec protects the ssRNA from degradation and facilitates cellular uptake) (InvivoGen, San Diego, CA) in 50 μl phosphate-buffered saline (PBS) to induce symptoms of pulmonary inflammation, or an oropharyngeal aspiration of an equal volume of PBS as a control, following Current protocols in mouse biology 2, 167-175 (2012). At 24 and 48 hours after ORN06 insult, some of ORN06-treated mice were given intraperitoneal injections of 100 μl PBS, or 10 mg/kg of DANA (N-Acetyl-2,3-dehydro-2-deoxyneuraminic acid; #252926-10MG, EMD, Millipore, Burlington, MA) or 0.1 mg/kg of 2-piperidinecarboxylic acid, 4-amino-1-methyl (AMPCA, #A00285-13785-026, Sundia, Shanghai, China) in 100 μl PBS. […]
(§3) After collecting BALF, the lungs from the mice were harvested and inflated with Surgipath frozen section compound (#3801480, Leica, Buffalo Grove, IL) and preserved at −80° C. […] Image quantification was done using Image J (NIH, Bethesda, MD). […] Using ‘ Straight’ command, the length of the alveolar wall on the image was measured and was recorded with the ‘Measure’ command. 8 measurements of the alveolar wall thickness were recorded for each image. […]

[6] = tested on: Mouse Model of CALD (ORN06 oropharyngeal aspiration); test: Percent of exudate-containing alveoli in lung cryosections, ORN06 mouse model of CALD; conditions: male mice, i.p. at 24 and 48 hours after ORN06 (DANA 10 mg/kg, AMPCA 0.1 mg/kg), day 3, FIG. 7
Procedure: as §2, §3

[7] = tested on: Mouse Model of CALD (ORN06 oropharyngeal aspiration); test: Percentage of alveolar airspace area occupied by exudate, ORN06 mouse model of CALD; conditions: lung cryosections; i.p. at 24 and 48 hours after ORN06 (DANA 10 mg/kg, AMPCA 0.1 mg/kg); day 3; FIG. 8
Procedure: To determine if DANA or AMPCA affect CALD symptoms in mice, 5 week old 20 g male and female C57BL/6 mice (#000664; Jackson Laboratories, Bar Harbor, ME) were given an oropharyngeal aspiration of 1 mg/kg (20 μg/mouse) ORN06/LyoVec (LyoVec protects the ssRNA from degradation and facilitates cellular uptake) (InvivoGen, San Diego, CA) in 50 μl phosphate-buffered saline (PBS) to induce symptoms of pulmonary inflammation, or an oropharyngeal aspiration of an equal volume of PBS as a control, following Current protocols in mouse biology 2, 167-175 (2012). […]
as §3
Using the Threshold function and the Measure Tool in NIH ImageJ, the percent area of each 20× objective image of lung cryosections described above containing tissue (not counting pale pink exudates) was measured, and this percentage was subtracted from 100% to obtain the percent area of the image occupied by the alveolar airspace. […]

[8] = tested on: Mouse Model of COVID-19-Like Cytokine Storm (ORN06); test: Serum cytokine levels (LEGENDplex Mouse Inflammation Panel), ORN06 mouse model; conditions: AMPCA 0.1 mg/kg i.p. at 24 and 48 hours after ORN06, serum at day 3
Procedure: as §1
Serum samples collected at day 3 post control or ORN06 insult were processed following the manufacturer's protocol. (#740150, LEGENDplex Mouse Inflammation Panel (13-plex), Biolegend, San Diego, CA) for simultaneous quantification of mouse cytokines using an Accuri C6 (BD Bioscience, Franklin Lakes, NJ) flow cytometer.

Structure (SMILES)	ORN06-induced increase in the number of cells in the BALF [1]	number of cells in the BALF, treated groups versus Control group [1]	ORN06-induced increase in the number of lymphocytes in the BALF ([2]; AMPCA 0.1 mg/kg i.p. at 24 and 48 hours after ORN06, day 3, FIG. 2B)	ORN06-induced increase in the number of monocyte/macrophages in the BALF [2]	counts of specific cell types in the BALF, treated groups versus Control group [2]	ORN06-induced increase in the number of CD11c positive macrophages and/or dendritic cells in the BALF [3]	ORN06-induced increase in the number of CD45-positive leukocytes in the BALF [3]	clot-like aggregates in the BAL cell spots [4]	ORN06-induced alveolar wall thickness increase [5]	percentage of exudate-containing alveoli [6]	percentage of the alveolar airspace area occupied by exudate [7]	serum levels of IL-1β ([8]; FIG. 9A)	serum levels of IL-6 ([8]; FIG. 9B)	serum levels of IL-12p70 ([8]; FIG. 9C)	serum levels of IL-23 ([8]; FIG. 9D)	serum levels of IL-27 ([8]; FIG. 9E)
CN1CCC(N)CC1C(=O)O (centres unmarked) [AMPCA, 4-amino-1-methyl-2-piperidine carboxylic acid]	ameliorated the ORN06-induced increase in the number of cells in the BALF	no significant difference	decreased the ORN06-induced increase in the number of monocyte/macrophages and lymphocytes	decreased the ORN06-induced increase in the number of monocyte/macrophages	no significant difference	decreased the ORN06-induced increase in the number of CD11c positive macrophages and/or dendritic cells	decreased the ORN06-induced increase	No clot-like aggregates were observed	significantly reduced	decreased the percentage of exudate-containing alveoli	decreased the percentage of the alveolar airspace area occupied by exudate	decreased the serum levels of both cytokines	decreased the serum levels of both cytokines	decreased the serum levels of IL-12p70	decreased the serum levels	decreased the serum levels
CC(=O)N[C@H]1[C@H]([C@H](O)[C@H](O)CO)OC(C(=O)O)=C[C@@H]1O [DANA, 2-deoxy-2,3-didehydro-N-acetylneuraminic acid]	ameliorated the ORN06-induced increase in the number of cells in the BALF	no significant difference		decreased the ORN06-induced increase in the number of monocyte/macrophages	no significant difference	decreased the ORN06-induced increase in the number of CD11c positive macrophages and/or dendritic cells	decreased the ORN06-induced increase	no clot-like aggregates were observed in the BAL cell spots from 2 of the 3	significantly reduced	decreased the percentage of exudate-containing alveoli	decreased the percentage of the alveolar airspace area occupied by exudate					
